Results: patent US5807860A, “Urea derivatives” (Mitsubishi Chemical Corporation, priority 1995, dated 1998)

Columns and labels:
[1] = tested on: high cholesterol fed WISTAR male rats (total cholesterol in the serum); test: Cholesterol reduction activity in high cholesterol fed rats; type: in vivo, rat (WISTAR); conditions: Rattus norvegicus, once a day for 5 days, 3.5 hours after final administration, probit analysis
Procedure: Cholesterol Reduction Activity in High Cholesterol Fed Rats
6-Week old WISTAR male rats were fed with high cholesterol solid feedstuff (Oriental Kobo Co., Ltd., 1% cholesterol, 0.5% cholic acid). Each group consisted of seven rats was compulsorily administered with 0.2% aqueous solution of a test compound (compound of Example 3) once a day at a dose of 1 mg/kg, 3 mg/kg, 10 mg/kg, or 30 mg/kg for 5 days. One group consisted of seven rats was fed with the same high cholesterol feedstuff and used as a control group. After 3.5 hours from the final administration, blood was collected from the abdominal aorta and the total cholesterol in the serum was measured. The reduction rate of total cholesterol was represented as a ratio between a control group not administered with the drug (seven rats) and examined by the probit analysis.

ACAT of HepG2 cells = biological target: T1, ACAT of HepG2 cells (Homo sapiens, UniProt P35610); test: Inhibitory activity against ACAT of HepG2 cells derived from human liver cancer cells; type: cell-based; conditions: radio-labelled oleic acid/BSA complex, cholesterol oleate produced
T1 construct: endogenous in cells; host or cells: HepG2
T1 sequence (P35610 1-550): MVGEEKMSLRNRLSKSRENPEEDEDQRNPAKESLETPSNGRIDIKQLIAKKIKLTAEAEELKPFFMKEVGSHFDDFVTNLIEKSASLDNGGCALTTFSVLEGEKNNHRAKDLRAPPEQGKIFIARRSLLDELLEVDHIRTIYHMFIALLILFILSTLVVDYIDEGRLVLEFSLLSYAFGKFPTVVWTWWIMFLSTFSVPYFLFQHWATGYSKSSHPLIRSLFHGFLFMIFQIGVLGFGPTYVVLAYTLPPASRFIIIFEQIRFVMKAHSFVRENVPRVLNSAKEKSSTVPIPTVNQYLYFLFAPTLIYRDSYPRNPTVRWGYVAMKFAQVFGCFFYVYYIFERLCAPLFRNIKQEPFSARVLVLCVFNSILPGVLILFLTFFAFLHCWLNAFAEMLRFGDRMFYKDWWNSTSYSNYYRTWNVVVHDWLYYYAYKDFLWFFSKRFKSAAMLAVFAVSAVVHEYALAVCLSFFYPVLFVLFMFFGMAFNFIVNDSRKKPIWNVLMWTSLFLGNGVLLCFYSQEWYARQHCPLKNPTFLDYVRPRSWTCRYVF
Procedure: Inhibitory Activity against ACAT of HepG2 cells Derived from Human Liver Cancer Cells Inhibitory activities of the compounds of the present invention against ACAT were measured by the method described below. HepG2 cells derived from human liver cancer cells were used for the measurement of the ACAT activity. A complex of radio-labelled oleic acid and bovine serum albumin was added to a culture of the cells, and the activity was measured by observing the amount of radio-labelled cholesterol oleate produced from the radio-labelled oleic acid in the cells.

[2] = Moisture absorption under ambient atmosphere (Karl Fisher method); type: physicochemical; conditions: kept under ambient atmosphere for 2 days
Source text: Among these compounds, compounds having higher hygroscopic properties may absorb moisture when kept under ambient atmosphere to form substances represented by the following formula: [drawing 15] wherein R1, R2, R3, R4, R5, R6, k, l, and Y are the same as those defined above; symbol "a" represents 0 or an arbitrary integer or represents an arbitrary fraction; and symbol "b" represents an arbitrary integer or an arbitrary fraction. For example, 3.3% weight increase was observed by Karl Fisher method after N-{5-(1-imidazolyl)-2-methoxyphenyl}methyl-N-(1-pentyl)-N'-[2-{3-(4-phenyl-1-piperazinyl)propoxy}-6-methylphenyl]urea dihydrochloride obtained in Example 3 was kept under ambient atmosphere for 2 days.

CCCCCN(Cc1cc(-n2ccnc2)ccc1OC)C(=O)Nc1c(C)cccc1OCCCN1CCN(c2ccccc2)CC1.Cl.Cl [Example 3, N-{5-(1-imidazolyl)-2-methoxyphenyl}methyl-N-(1-pentyl)-N'-[2-{3-(4-phenyl-1-piperazinyl)propoxy}-6-methylphenyl]urea dihydrochloride]
ED10 ([1]; 10% reduction of serum total cholesterol vs control, read-out: Dose of test compound for total cholesterol reduction rate 10%): 1.9 mg/kg
ED20 ([1]; 20% reduction of serum total cholesterol vs control, read-out: Dose of test compound for total cholesterol reduction rate 20%): 3.6 mg/kg
ED25 ([1]; 25% reduction of serum total cholesterol vs control, read-out: Dose of test compound for total cholesterol reduction rate 25%): 4.6 mg/kg
ED30 ([1]; 30% reduction of serum total cholesterol vs control, read-out: Dose of test compound for total cholesterol reduction rate 30%): 5.7 mg/kg
ED50 ([1]; 50% reduction of serum total cholesterol vs control, read-out: Dose of test compound for total cholesterol reduction rate 50%): 12.1 mg/kg
IC50 (ACAT of HepG2 cells): 108 nM
weight increase (moisture absorption) [2]: 3.3%
